In this experiment the target is T1, mPDE10A7 (Mus musculus, UniProt Q8CA95).
T1 sequence (Q8CA95 446-763 limits assumed): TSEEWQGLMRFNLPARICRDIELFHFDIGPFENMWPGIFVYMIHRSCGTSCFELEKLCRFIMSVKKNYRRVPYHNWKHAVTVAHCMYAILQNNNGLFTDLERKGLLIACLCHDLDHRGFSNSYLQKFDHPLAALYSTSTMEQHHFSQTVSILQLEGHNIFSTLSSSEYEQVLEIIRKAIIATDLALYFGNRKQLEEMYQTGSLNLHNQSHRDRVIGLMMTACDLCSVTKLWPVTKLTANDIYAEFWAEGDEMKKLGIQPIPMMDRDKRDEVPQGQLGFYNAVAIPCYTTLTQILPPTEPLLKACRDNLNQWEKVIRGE
In words: mPDE10A7 enzyme inhibition (IMAP fluorescence polarization). In kind it is biochemical. The following applies: fluorescein labeled cAMP or cGMP substrate. As to the method:
Enzyme Activity: To analyze the enzyme activity, 5 μL of serial diluted mPDE10A7 containing lysate were incubated with equal volumes of diluted (100-fold) fluorescein labeled cAMP or cGMP for 30 minutes in MDC HE 96-well assay plates at room temperature. Both the enzyme and the substrates were diluted in the following assay buffer: Tris/HCl (pH 8.0) 50 mM, MgCl2 5 mM, 2-mercaptoethanol 4 mM, BSA 0.33 mg/mL. After incubation, the reaction was stopped by adding 20 μL of diluted (400-fold) binding reagents and was incubated for an hour at room temperature. The plates were counted in an Analyst GT (Molecular Devices) for fluorescence polarization. An IMAP Assay kit (Molecular Device) was used to assess enzyme properties of mPDE10A7. Data were analyzed with SoftMax Pro.
Enzyme Inhibition: To check the inhibition profile, 10 μL of serial diluted compounds were incubated with 30 μl of diluted PDE enzymes in a 96-well polystyrene assay plate for 30 minutes at room temperature. After incubation, 5 μL of the compound-enzyme mixture were aliquoted into a MDC HE black plate, mixed with 5 μl of 100-fold diluted fluorescein labeled substrates (cAMP or cGMP), and incubated for 30 minutes at room temperature. The reaction was stopped by adding 20 μL of diluted binding reagents and counted in an Analyst GT for fluorescence polarization. The data were analyzed with SoftMax Pro.

The results in this text go back to US20070265270A1, “Cinnoline derivatives as phosphodiesterase 10 inhibitors” (priority 2006, published 2007).

pIC50: −log10 of the molar value.

For orientation: pIC50 means −log10 of the IC50, conventionally taken in molar units. A high value points to a low IC50. On to `COc1cc2nncc(N3CCC(c4ccccc4)C3)c2cc1OC` (racemic) [Cpd 12, 6,7-dimethoxy-4-(3-phenylpyrrolidin-1-yl)cinnoline], for which the negative logarithm of the IC50 (pIC50) (Table 3) is 6.58. In turn, `COc1cc2nncc(N3CCCC(C(=O)N4CCCC4)C3)c2cc1OC` (racemic) [Cpd 32, 6,7-Dimethoxy-4-[3-(pyrrolidin-1-ylcarbonyl)piperidin-1-yl]cinnoline] gave a negative-log IC50 (pIC50) (Table 3) of 6.40. The same measure, in the same setting: the result for `COc1cc2nncc(N3CCCC(Oc4ccccc4)C3)c2cc1OC` (racemic) [Cpd 37] reads 6.95; that for `COc1cc2nncc(N3CCOC(c4ccc5c(c4)CCO5)C3)c2cc1OC` (racemic) [Cpd 38], 8.19.

The molecule `COc1cc2nncc(N3CCCC(C(=O)N4CCCCC4)C3)c2cc1OC` (racemic) [Cpd 39] gave a pIC50 (Table 3) of 6.42. Still for that read-out and setting: in the case of `COc1cc2nncc(N3CC(c4ccc(Cl)cc4)OCC3=O)c2cc1OC` (racemic) [Cpd 40] it was 6.37; in that of `COc1cccc(C2CN(c3cnnc4cc(OC)c(OC)cc34)C(=O)CO2)c1` (racemic) [Cpd 52, 4-(6,7-dimethoxycinnolin-4-yl)-6-(3-methoxyphenyl)morpholin-3-one], 6.51; in that of `COc1cc2nncc(N3CCCC(CN4CCCC4=O)C3)c2cc1OC` (racemic) [Cpd 62, 1-{[1-(6,7-dimethoxycinnolin-4-yl)piperidin-3-yl]methyl}pyrrolidin-2-one], 6.47. On the same count and under the same terms, the result for `COc1cc2nncc(N3CCOC(c4ccc(OC(F)(F)F)cc4)C3)c2cc1OC` (racemic) [Cpd 63] reads 7.53; that for `COc1ccc(C2CN(c3cnnc4cc(OC)c(OC)cc34)CC(=O)N2C)cc1` (racemic) [Cpd 65], 7.34. Same read-out and setting: in the case of `COc1cc2nncc(N3CCOC(c4ccc(O)cc4)C3)c2cc1OC` (racemic) [Cpd 74] it was 8.42. Where the note is “Table 3”, `COc1ccc2cc(C3CN(c4cnnc5cc(OC)c(OC)cc45)CCN3)ccc2c1` (racemic) [Cpd 86] had a negative logarithm of the IC50 (pIC50) of 8.88. The same measure, in the same setting: in the case of `COc1cc2nncc(N3CCOC(c4ccc(C)cc4F)C3)c2cc1OC` (racemic) [Cpd 88] it was 7.24; in that of `COc1cc2nncc(N3CCNC(c4cccs4)C3)c2cc1OC` (racemic) [Cpd 93], 8.11. The same measure, in the same setting: the result for `COc1cc2nncc(N3CCNC(c4ccc(N(C)C)cc4)C3)c2cc1OC` (racemic) [Cpd 94] reads 8.80; that for `COc1cc2nncc(N3CCOC(c4ccccc4C)C3)c2cc1OC` (racemic) [Cpd 96], 7.85; that for `COc1ccc(CC2CCN(c3cnnc4cc(OC)c(OC)cc34)C2)cc1` (racemic) [Cpd 98], 7.58.

Regarding `CC[C@@H]1CN(c2cnnc3cc(OC)c(OC)cc23)C[C@@H](c2ccc(OC)cc2)O1` (racemic) [Cpd 100], the negative-log IC50 (pIC50) (Table 3) is 8.45. Compared with the last molecule, the pIC50 is 0.87 log units higher. Still for that read-out and setting: the result for `COc1cc2nncc(N3CCCC(NC(=O)c4ccccc4F)C3)c2cc1OC` (racemic) [Cpd 102] reads 7.45; that for `COc1cc2nncc(N3CCNC(c4cccc5ccccc45)C3)c2cc1OC` (racemic) [Cpd 103], 7.92.

The molecule `COc1cc2nncc(N3CCCC(C4CCCCC4)C3)c2cc1OC` (racemic) [Cpd 104] showed a pIC50 (Table 3) of 6.58. Still for that read-out and setting: in the case of `COc1cc2nncc(N3CCNC(c4cc(OCc5ccccc5)cc(OCc5ccccc5)c4)C3)c2cc1OC` (racemic) [Cpd 118] it was 6.80. In the case of `COc1cc(OC)cc(C(=O)NC2CCCN(c3cnnc4cc(OC)c(OC)cc34)C2)c1` (racemic) [Cpd 121], where the note is “Table 3”, the pIC50 was 7.79.

Take `COc1ccc(C2CN(c3cnnc4cc(O)c(OC)cc34)CCO2)cc1` (racemic) [compound 127]: the pIC50 (Table 4) is 6.84. `COc1cc2nncc(-c3nc4ccccc4o3)c2cc1OC` [Cpd 1, 4-(1,3-benzoxazol-2-yl)-6,7-dimethoxycinnoline hydroformate] showed a pIC50 (Table 3) of 6.66. On the same count and under the same terms, in the case of `COc1cc2nncc(-n3nc(C(=O)NC4CC4)c4ccccc43)c2cc1OC` [Cpd 3, N-cyclopropyl-1-(6,7-dimethoxycinnolin-4-yl)-1H-indazole-3-carboxamide hydroformate] it was 6.85; in that of `COc1cc2nncc(-c3ccc4c(c3)OCCN4C)c2cc1OC` [Cpd 8, 7-(6,7-dimethoxycinnolin-4-yl)-4-methyl-3,4-dihydro-2H-1,4-benzoxazine], 7.64; in that of `COCCOc1ccc2cnn(-c3cnnc4cc(OC)c(OC)cc34)c2c1` [Cpd 19, 6,7-Dimethoxy-4-[6-(2-methoxyethoxy)-1H-indazol-1-yl]cinnoline], 6.85. On the same count and under the same terms, the result for `COc1cc2nncc(-n3ncc4ccc(N5CCOCC5)cc43)c2cc1OC` [Cpd 21, 6,7-dimethoxy-4-(6-morpholin-4-yl-1H-indazol-1-yl)cinnoline] reads 6.26. For `CCN1CCN(c2cccc3c2cnn3-c2cnnc3cc(OC)c(OC)cc23)CC1` [Cpd 48], the pIC50 (Table 3) is 7.54. Molecule `COc1cc2nncc(-n3ncc4c(N5CCN(CC6CC6)CC5)cccc43)c2cc1OC` [Cpd 50, 4-{4-[4-(cyclopropylmethyl)piperazin-1-yl]-1H-indazol-1-yl}-6,7-dimethoxycinnoline] showed a pIC50 (Table 3) of 7.20. Against the preceding molecule, the pIC50 is 0.34 log units lower. On the same count and under the same terms, in the case of `COc1cc2nncc(N3CCCC(n4ccccc4=O)C3)c2cc1OC` (stereo not shown) [Cpd 51] it was 6.82. Where the note is “Table 3”, `COc1cc2nncc(N3CCCC(c4nc(C)no4)C3)c2cc1OC` (stereo not shown) [Cpd 56] had a pIC50 of 6.72.

In the case of `COc1ccc(C2(O)CCCN(c3cnnc4cc(OC)c(OC)cc34)C2)cc1` (stereo not shown) [Cpd 64], for the setting “Table 3”, the negative logarithm of the IC50 (pIC50) is 7.72. In the case of `COc1cc2nncc(N3CCC[C@@H](c4ccccc4F)C3)c2cc1OC` [Cpd 67], the negative-log IC50 (pIC50) (Table 3) is 8.15.

The molecule `CCN(C)c1cccc2c1cnn2-c1cnnc2cc(OC)c(OC)cc12` [Cpd 72] gave a pIC50 (Table 3) of 7.36. This pIC50 is 0.79 log units lower than that of the molecule before. The same measure, in the same setting: in the case of `COc1cc2nncc(-n3ncc4c(N5CCCC5)cccc43)c2cc1OC` [Cpd 73, 6,7-dimethoxy-4-(4-pyrrolidin-1-yl-1H-indazol-1-yl)cinnoline] it was 7.02. Still for that read-out and setting: in the case of `COc1cc2nncc(-c3ccc4c(c3)N(C)C(=O)C4(C)C)c2cc1OC` [Cpd 76] it was 7.73; in that of `COc1ccc(CNC2CCN(c3cnnc4cc(OC)c(OC)cc34)CC2)cc1` [Cpd 78, 1-(6,7-dimethoxycinnolin-4-yl)-N-(4-methoxybenzyl)piperidin-4-amine], 5.86; in that of `COc1cc2nncc(N3CCC(N4CCCC4=O)CC3)c2cc1OC` [Cpd 85], 6.54. Same read-out and setting: in the case of `COc1ccc(N2CCC=C(c3cnnc4cc(OC)c(OC)cc34)C2)cc1` [Cpd 101] it was 8.19; in that of `COc1cc2nncc(-n3ncc4c(N5CCN(C(C)=O)CC5)cccc43)c2cc1OC` [Cpd 106], 7.80.

In turn, `COc1cc2nncc(N3CCCC(N(C)C(=O)c4ccccc4)C3)c2cc1OC` (stereo not shown) [Cpd 107] gave a pIC50 (Table 3) of 7.23. Under “Table 3”, `COc1cc2nncc(N3CCO[C@@H](c4ccc(C)cc4F)C3)c2cc1OC` [Cpd 110] showed a negative-log IC50 (pIC50) of 8.54. With `COc1ccc2cc([C@@H]3CN(c4cnnc5cc(OC)c(OC)cc45)CCN3)ccc2c1` [Cpd 111], under “Table 3”, the pIC50 is 7.99.

Turning to `COc1cc2nncc(-n3ncc4c(Br)cccc43)c2cc1OC` [Cpd 113, 4-(4-bromo-1H-indazol-1-yl)-6,7-dimethoxycinnoline], the negative-log IC50 (pIC50) (Table 3) was 6.82.
